Key:
ypt1^ts cells = assay: Rescue of growth of ypt1^ts mutant yeast (OD600); type: cell-based; conditions: Saccharomyces cerevisiae, read-out: Ypt1-ts MRC (Minimum Rescue Concentration), ypt1^ts cells, 35° C. and 37° C., OD600; multiple results separated by a comma
Description: The activity of the compounds as modulators of protein trafficking may be measured in the assays described herein that evaluate the ability of a compound to rescue an impairment in protein trafficking. For example, the yeast mutant cell line ypt1^ts can be used to identify compounds that rescue cells from the lethal phenotype of a mutant YPT1 allele (see, e.g., Examples and Schmitt et al. (1988) Cell 53:635-47). The activity may be measured, for example, in a whole yeast cell assay using 384-well screening protocol and an optical density measurement.
The yeast mutant cell line ypt1^ts suppresses, in a temperature dependent fashion, the dominant-lethal phenotype of a mutant YPT1 allele (Schmitt et al. (1988) Cell 53:635-47). The yeast mutant cell line ypt1^ts contains an allele of YPT1 that has two point mutations: one that changes an asparagine at position 121 to a isoleucine (N121I) and another that changes an alanine at position 161 to a valine (A161V). The N121I mutation causes dominant lethality by itself, but lethality is suppressed by the second mutation, resulting in a recessive loss of function phenotype at the restrictive temperatures. ypt1^ts cells grow normally at temperatures up to 25° C., but are growth arrested at 37° C. (Id.).
Compounds were screened to assess their ability to restore growth of ypt1^ts cells. The effect of the compounds was measured on ypt1^ts cells cultured at room temperature (permissive temperature), 37° C. (non-permissive temperature), and 35° C. (semi-permissive temperature).
To determine if the test compounds could rescue the ypt1^ts mutant phenotype, ypt1^ts cells were grown overnight in synthetic complete (SC) media supplemented with 2% glucose at room temperature. Log phase cells were diluted into SC 2% glucose media to an OD600 of 0.003. 100 μL of this culture was then aliquoted into each well of 96-well flat bottom microtiter plates. 1 μL of the test compounds dissolved in DMSO (at a concentration range from 5 mM-0.005 mM) or of DMSO alone was added to each well (50 μM-0.05 μM final concentration in 1% DMSO). Plates were mixed by vortexing and incubated at 35° C. and 37° C. Compound rescue of the ypt1^ts temperature sensitive defect was assessed by measuring the OD600 (optical density at 600 nm; cell growth) of the cultures. Plates incubated at 35° C. were measured at 24 and 40 hours incubation time while plates grown at 37° C. were measured after 40 hours of incubation.
Assays monitoring the rescue of ypt1^ts mutants were performed using a vehicle, a positive control (calcium), and the compounds identified in Table II. Results in Table II corresponding to an MRC (Minimum Rescue Concentration) for ypt1^ts of greater than or equal to 50 micromolar are labeled +; of an MRC for ypt1^ts of 10-50 micromolar are labeled ++; and of an MRC for ypt1^ts of less than 10 micromolar are labeled +++. Multiple results for a particular compound are separated by a comma.

ΔF508 CFTR = ΔF508 CFTR (Homo sapiens, UniProt P13569, DEL508-508); assay: Corrector activity, YFP halide (iodide) quenching assay in FRT cells expressing ΔF508 CFTR; type: cell-based; parameters: expressed in transfected cells; host or cells: Fischer rat thyroid (FRT) cells; conditions: FRT cells ΔF508 CFTR/YFP, 24 hours with compound at 37° C., forskolin and genistein; read-out: Corrector EC50
Sequence of ΔF508 CFTR (P13569 with tags, fused parts or gaps DEL508-508): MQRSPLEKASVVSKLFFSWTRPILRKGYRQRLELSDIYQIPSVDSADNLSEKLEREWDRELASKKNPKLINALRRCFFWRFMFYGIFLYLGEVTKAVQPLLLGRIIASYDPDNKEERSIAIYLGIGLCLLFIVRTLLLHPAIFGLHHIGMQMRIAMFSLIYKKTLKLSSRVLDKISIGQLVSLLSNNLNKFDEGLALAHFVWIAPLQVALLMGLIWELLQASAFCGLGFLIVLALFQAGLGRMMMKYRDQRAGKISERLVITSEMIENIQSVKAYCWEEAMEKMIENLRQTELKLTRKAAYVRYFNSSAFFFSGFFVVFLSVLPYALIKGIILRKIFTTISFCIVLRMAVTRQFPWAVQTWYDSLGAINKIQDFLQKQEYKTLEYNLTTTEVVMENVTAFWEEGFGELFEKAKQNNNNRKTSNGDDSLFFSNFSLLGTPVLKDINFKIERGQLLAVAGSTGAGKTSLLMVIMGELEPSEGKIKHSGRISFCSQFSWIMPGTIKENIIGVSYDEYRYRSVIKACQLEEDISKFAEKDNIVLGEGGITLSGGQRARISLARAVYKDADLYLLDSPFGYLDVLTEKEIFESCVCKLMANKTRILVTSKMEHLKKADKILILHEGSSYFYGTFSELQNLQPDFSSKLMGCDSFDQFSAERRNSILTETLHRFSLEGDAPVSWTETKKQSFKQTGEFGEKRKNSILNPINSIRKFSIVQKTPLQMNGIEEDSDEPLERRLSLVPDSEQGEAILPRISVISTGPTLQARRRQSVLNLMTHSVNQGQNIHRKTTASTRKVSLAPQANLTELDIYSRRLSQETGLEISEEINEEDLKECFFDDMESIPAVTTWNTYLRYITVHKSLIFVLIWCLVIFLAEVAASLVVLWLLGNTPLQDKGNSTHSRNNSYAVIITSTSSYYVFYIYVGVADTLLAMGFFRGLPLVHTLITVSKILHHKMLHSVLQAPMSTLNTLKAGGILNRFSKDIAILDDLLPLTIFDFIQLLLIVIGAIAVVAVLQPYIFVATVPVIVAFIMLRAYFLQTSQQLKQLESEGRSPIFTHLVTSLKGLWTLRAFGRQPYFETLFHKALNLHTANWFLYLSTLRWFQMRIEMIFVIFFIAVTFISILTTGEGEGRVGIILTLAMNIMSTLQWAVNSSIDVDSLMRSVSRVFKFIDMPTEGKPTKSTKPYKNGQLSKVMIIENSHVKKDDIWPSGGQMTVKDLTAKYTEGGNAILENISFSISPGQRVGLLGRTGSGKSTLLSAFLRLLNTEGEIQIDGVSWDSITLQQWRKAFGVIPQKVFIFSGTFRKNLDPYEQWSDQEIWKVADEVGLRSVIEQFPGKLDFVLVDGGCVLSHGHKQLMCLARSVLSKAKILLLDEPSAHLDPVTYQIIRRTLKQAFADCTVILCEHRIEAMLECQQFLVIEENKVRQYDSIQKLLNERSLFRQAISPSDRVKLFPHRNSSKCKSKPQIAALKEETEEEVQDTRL
Outline: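 FRT cells co-expressing ΔF508 CFTR and halide-sensitive YFP were incubated 24 h at 37° C with compounds, then stimulated 30 min at 37° C in PBS with forskolin and genistein. Endpoint fluorescence after iodide injection was normalized to initial reading; EC50 from 4-parameter fit with bottom constrained to DMSO control.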

Compound | minimal effective concentration (ypt1^ts cells) [µM] | EC50 (ΔF508 CFTR) [µM]
C#CCn1nc(-c2ccc(Cl)cc2)c2c(N)ncnc21 [compound 30] | > 50 | > 15
CC(C)(C)n1nc(-c2ccc(Cl)cc2)c2c(N)nc(C3CC3)nc21 [compound 62] | > 50 | 
Cc1cccc(Cc2nn(C(C)(C)C)c3ncnc(N)c23)c1 [compound 52] | 10 to 50 | 
CC(C)(C)n1nc(Cc2cccc3ccccc23)c2c(N)nc(C3CC3)nc21 [compound 92] | > 50 | 
CC(C)(C)n1nc(C(=O)c2ccccc2)c2c(N)ncnc21 [compound 83, (4-Amino-1-tert-butyl-1H-pyrazolo[3,4-d]pyrimidin-3-yl)-phenyl-methanone] | > 50 | 
Cc1cc(-c2nn(C(C)(C)C)c3ncnc(N)c23)ccc1F [compound 41] | > 50 | > 15
CC(C)(C)n1nc(CCc2ccccc2)c2c(N)ncnc21 [compound 48] | > 50 | 
CC(C)(C)n1nc(C(O)c2ccccc2)c2c(N)ncnc21 (stereo not drawn) [compound 82, (4-amino-1-tert-butyl-1H-pyrazolo[3,4-d]pyrimidin-3-yl)-phenyl-methanol] | > 50 | 
CCn1nc(-c2ccc(Cl)cc2)c2c(N(C(C)=O)C(C)=O)ncnc21 [compound 54] | > 50 | 
CC(C)(C)n1nc(Cc2cccc3c2OCC3)c2c(N)ncnc21 [compound 66] | 10 to 50 | 
CCn1nc(-c2ccc(Cl)cc2)c2c(NC(C)=O)ncnc21 [compound 53] | > 50 | 5 to 10
CC(C)(C)n1nc(Cc2ccc3c(c2)OCO3)c2c(N)ncnc21 [compound 23] | 10 to 50 | 
CC(C)(C)n1nc(Cc2ccc(F)cc2)c2c(N)ncnc21 [compound 51] | > 50 | 
CC(C)(C)n1nc(-c2ccc(-c3ccccc3)cc2)c2c(N)ncnc21 [compound 14] | > 50 | 
Nc1ncnc2c1c(Cc1cccc3ccccc13)nn2CC1CC1 [compound 72] | < 10 | 
CC(C)(C)n1nc(-c2ccc(C#N)cc2)c2c(N)ncnc21 [compound 35] | > 50 | 
Cc1ccc(Cc2nn(C(C)(C)C)c3ncnc(N)c23)cc1 [compound 22] | 10 to 50 | 
CC(C)(C)n1nc(-c2ccccc2Cl)c2c(N)ncnc21 [compound 7] | > 50 | 
CC(c1ccccc1)c1nn(C(C)(C)C)c2ncnc(N)c12 (stereo not drawn) [compound 49] | 10 to 50 | 

Compound | minimal effective concentration (ypt1^ts cells) [µM] | EC50 (ΔF508 CFTR) [µM]
COc1cccc(Cc2nn(C(C)(C)C)c3ncnc(N)c23)c1 [compound 56] | 10 to 50 | 
Cc1ccc(-c2nn(C(C)(C)C)c3ncc(C(=O)O)c(N)c23)cc1 [compound 45, 4-Amino-1-tert-butyl-3-p-tolyl-1H-pyrazolo[3,4-b]pyridine-5-carboxylic acid] | > 50 | 
CC(C)(C)n1nc(-c2cc3ccccc3o2)c2c(N)ncnc21 [compound 42] | > 50 | 
CC(C)(C)n1nc(COCc2ccccc2)c2c(N)ncnc21 [compound 81, 3-benzyloxymethyl-1-tert-butyl-1H-pyrazolo[3,4-d]pyrimidin-4-ylamine] | > 50 | 
C=CCn1nc(Cc2cccc3ccccc23)c2c(N)ncnc21 [compound 76] | 10 to 50 | 
CC(C)(C)n1nc(-c2cccs2)c2c(N)ncnc21 [compound 15] | > 50 | 
COc1ccc(-c2nn(C(C)(C)C)c3ncnc(N)c23)cc1 [compound 13] | > 50 | 
CCn1nc(Cc2cccc3ccccc23)c2c(N)ncnc21 [compound 71] | < 10 | 
CC(C)(C)n1nc(Cc2ccc(Cl)cc2)c2c(N)ncnc21 [compound 19] | < 10 | 
CCc1nc(N)c2c(-c3ccc(Cl)cc3)nn(C(C)(C)C)c2n1 [compound 61] | > 50 | 
CC(C)(C)n1nc(Cc2cccc(-c3ccccc3)c2)c2c(N)ncnc21 [compound 60] | > 50 | 
CC(C)(C)n1nc(Cc2cccc(Br)c2)c2c(N)ncnc21 [compound 58] | < 10 | 
CC(C)(C)n1nc(-c2ccc(Cl)cc2)c2c(N)nc(CC3CC3)nc21 [compound 63] | > 50 | 
CC(C)(C)n1nc(Cc2ccc(Cl)c(Cl)c2)c2c(N)ncnc21 [compound 21] | > 50 | 
C#Cc1cccc(Cc2nn(C(C)(C)C)c3ncnc(N)c23)c1 [compound 64] | 10 to 50 | 
CC(C)(C)n1nc(C(=O)O)c2c(N)ncnc21 [compound 85, 4-Amino-1-tert-butyl-1H-pyrazolo[3,4-d]pyrimidine-3-carboxylic acid] | > 50 | 
CC(C)(C)n1nc(-c2ccc(F)cc2)c2c(N)ncnc21 [compound 9, 1-tert-Butyl-3-(4-fluoro-phenyl)-1H-pyrazolo[3,4-d]pyrimidin-4-ylamine] | > 50 | 
Nc1ncnc2c1c(Cc1cccc3ccccc13)nn2C1CC1 [compound 73] | < 10 | 
Nc1ncnc2[nH]nc(Cc3cccc4ccccc34)c12 [compound 70] | > 50 | 

Compound | minimal effective concentration (ypt1^ts cells) [µM] | EC50 (ΔF508 CFTR) [µM]
CC(C)(C)n1nc(-c2ccc(Cl)c(Cl)c2)c2c(N)ncnc21 [compound 36] | > 50 | 
CC(C)(C)n1nc(Cc2ccccc2Cl)c2c(N)ncnc21 [compound 20] | 10 to 50 | 
CC(C)(C)n1nc(Cc2cccc3ccoc23)c2c(N)ncnc21 [compound 68] | 10 to 50 | 
CN(C)c1cccc(C(O)c2nn(C(C)(C)C)c3ncnc(N)c23)c1 (stereo not drawn) [compound 87] | > 50 | 
CC(C)(C)n1nc(Cc2cccc(F)c2)c2c(N)ncnc21 [compound 50] | 10 to 50 | 
Cc1ccc(Cc2nn(C(C)(C)C)c3ncnc(N)c23)cc1C [compound 65] | 10 to 50 | 
CC(C)(C)c1ccc(-c2nn(C(C)(C)C)c3ncnc(N)c23)cc1 [compound 18] | > 50 | 
CC(C)(C)n1nc(-c2ccsc2)c2c(N)ncnc21 [compound 37] | > 50 | 
CC(C)(C)n1ncc2c(N)ncnc21 [compound 12, 1-tert-butyl-1H-pyrazolo[3,4-d]pyrimidin-4-ylamine] | > 50 | 
Cc1nc(N)c2c(-c3ccc(Cl)cc3)nn(C(C)(C)C)c2n1 [compound 57] | 10 to 50 | 
CC(C)Cn1nc(Cc2cccc3ccccc23)c2c(N)ncnc21 [compound 75] | < 10 | 
Cc1ccc(-c2nn(C(C)(C)C)c3nccc(N)c23)cc1 [compound 69, 1-tert-Butyl-3-p-tolyl-1H-pyrazolo[3,4-b]pyridin-4-ylamine] | > 50 | 
CC(C)n1nc(Cc2cccc3ccccc23)c2c(N)ncnc21 [compound 78] | < 10 | 
CC(C)(C)n1nc(C(N)=O)c2c(N)ncnc21 [compound 89, 4-Amino-1-tert-butyl-1H-pyrazolo[3,4-d]pyrimidine-3-carboxylic acid amide] | > 50 | 
Nc1ncnc2c1c(-c1ccc(Cl)cc1)nn2Cc1ccccc1 [compound 28] | 10 to 50 | 
CC(C)(C)n1nc(CNc2ccccc2)c2c(N)ncnc21 [compound 88] | 10 to 50 | 
CC(C)(C)n1nc(Cc2ccc(F)c3ccccc23)c2c(N)ncnc21 [compound 91] | < 10 | 
CC(C)c1ccc(-c2nn(C(C)(C)C)c3ncnc(N)c23)cc1 [compound 17] | > 50 | 
CC(C)(C)n1nc(Cc2cccc(C#N)c2)c2c(N)ncnc21 [compound 59] | > 50 | 
